The results in this text go back to patent publication US8541200B2, “Cleavage of fusion proteins using Granzyme B protease” (Hoffmann-La Roche Inc., priority 2003, dated 2013).

Where “and” joins values, the source holds several entries; their conditions need not be identical. Equal entries are not always repeated.

Type in all cases: biochemical
Series [1] is described as follows: Specificity on chromogenic substrates. The conditions noted are these: 400 μM substrate, 1 μg protease, 100 mM HEPES pH 7.75; normalized to Ac-IEPD-pNA = 100%. The method, then: The activity assay was carried out in 500 μl 100 mM HEPES pH 7.75 with a substrate concentration of 400 μM and 1 μg protease added for each measurement. All measurements were done at 23° C. and in triplicate, and the activities obtained were normalized by setting the activity measured on Ac-IEPD-pNA to 100%.
The specificity of both the GrB-H6 and the GrB-H6 C228F protease was examined using the chromogenic substrates Ac-LEED-pNA, Ac-VEID-pNA, Ac-YVAD-pNA, and Ac-DEVD-pNA, in addition to the Ac-IEPD-pNA substrate applied in Example 4. The activity assay was again carried out in 500 μl 100 mM HEPES pH 7.75 with a substrate concentration of 400 μM. For each measurement 1 μg of protease was added to the assay cuvette. All measurements were done in triplicate, and the activities obtained were normalized by setting the activity measured on Ac-IEPD-pNA to 100%.

The nature of series [2]: Colorimetric Granzyme B activity assay with Ac-IEPD-pNA (absorbance at 405 nm). The method, then: GrB-H6 activity was measured using the following mix: 500 μl buffer, 2 μl 100 mM Ac-IEPD-pNA, and 5 μl GrB-H6.
Recombinant self-activating human Granzyme B derivatives IEPD-GrB-H6 and IEAD-GrB-H6 were produced as described in Example 2 by using the expression vectors pT7-IEPD-GrB-H6 and pT7-IEAD-GrB-H6 described in Example 1. The IEAD-GrB-H6 and IEPD-GrB-H6 proteins were eluted from the SP Sepharose columns and stored at 4° C. for 2 days before the activity of the respective top fractions were determined by using a colorimetric assay. For this purpose the following was mixed: 500 μl buffer (100 mM HEPES pH 7.5), 2 μl 100 mM Ac-IEPD-pNA, and 5 μl protein solution. The change in absorption was then determined at 405 nm during 3 min. The activity was further determined after additional incubation for 1 and 2 days at 4° C.
The activity of the activated and purified GrB-H6 was measured in different buffers using the Ac-IEPD-pNA substrate: 500 μl buffer, 2 μl 100 mM Ac-IEPD-pNA, and 5 μl GrB-H6. The ΔOD405/min was calculated from the first 0.75 min unless otherwise noted.

The nature of series [3]: Steady state kinetic parameters KM and kcat, Lineweaver-Burk plot. To be noted: 100 mM HEPES pH 7.75; 20 nM protease. The method, then:
To estimate the steady state kinetic parameters KM and kcat, the same colorimetric assay as described above was used with a total volume of 500 μl in the assay cuvette. The assay buffer was 100 mM HEPES pH 7.75, and both GrB-H6 and GrB-H6 C228F were used in a concentration of 20 nM in each measurement. To construct a Lineweaver-Burk plot the following substrate concentrations were used: 5, 40, 150, 300, and 600 μM.

“GrB-H6: activated human Granzyme B with C-terminal hexa-His tag, from cleavage/activation of pro-IEGR-GrB-H6 by FXa”: the “specificity on chromogenic substrates” value in series [1] is reported as “at least as specific as the GrB-H6 C228F protease”. Besides, the “Activity (ΔOD405/min)” value in series [2] (50 mM NaCl, 25 mM Tris-HCl pH 7.4, 0.5 μg GrB-H6) is 0.1948 ΔOD405/min; in series [2] (100 mM HEPES pH 7.2, 0.5 μg GrB-H6), 0.1970 ΔOD405/min; in series [2] (100 mM HEPES pH 7.4 + 50 mM KCl, 0.5 μg GrB-H6), 0.2167 ΔOD405/min; in series [2] (100 mM HEPES pH 7.4 + 50 mM NaCl, 0.5 μg GrB-H6), 0.1993 ΔOD405/min and 0.1938 ΔOD405/min; in series [2] (100 mM HEPES pH 7.4, 0.5 μg GrB-H6) it was 0.2273 ΔOD405/min and 0.2328 ΔOD405/min; in series [2] (100 mM HEPES pH 7.5 + 5 mM Ca^2+, 0.5 μg GrB-H6) it was 0.2425 ΔOD405/min. For the same substance, the “Activity (ΔOD405/min)” value in series [2] (100 mM HEPES pH 7.5, 0.5 μg GrB-H6) is listed as 0.2350 ΔOD405/min; in series [2] (100 mM KCl, 50 mM Tris-HCl pH 7.4, 0.5 μg GrB-H6), 0.1662 ΔOD405/min; in series [2] (100 mM NaCl, 50 mM Tris-HCl pH 7.4, 0.5 μg GrB-H6), 0.1682 ΔOD405/min; in series [2] (TN pH 7.0, 1 μg GrB-H6), 0.2794 ΔOD405/min; in series [2] (TN pH 7.4 + 5 mM Ca^2+, 0.5 μg GrB-H6), 0.1401 ΔOD405/min; in series [2] (TN pH 7.4 + 5 mM Mg^2+, 0.5 μg GrB-H6) it was 0.1491 ΔOD405/min. In addition, the “Activity (ΔOD405/min)” value is 0.0303 (3 min) ΔOD405/min in series [2] (TN pH 7.4 + 0.1% TWEEN20, 0.2 μg GrB-H6, (3 min)); 0.0887 ΔOD405/min in series [2] (TN pH 7.4 + 0.1% TWEEN20, 0.5 μg GrB-H6); 0.0245 (3 min) ΔOD405/min in series [2] (TN pH 7.4, 0.2 μg GrB-H6, (3 min)); 0.0835 ΔOD405/min and 0.1082 ΔOD405/min in series [2] (TN pH 7.4, 0.5 μg GrB-H6); 0.2624 ΔOD405/min and 0.2930 ΔOD405/min in series [2] (TN pH 7.4, 1 μg GrB-H6); 0.2213 (1 min) ΔOD405/min in series [2] (TN pH 8.1, 1 μg GrB-H6, (1 min)). The “GrB activity, before FXa removal” value in series [2] (100 mM NaCl, 50 mM Tris-HCl pH 8.0) is recorded as 0.1401 ΔOD405/min. Besides, the “GrB activity, after FXa removal” value in series [2] (100 mM NaCl, 50 mM Tris-HCl pH 8.0, top fraction of SP Sepharose eluate) is 0.2213 ΔOD405/min. In addition, the “best buffer for activity of the buffers evaluated” value in series [2] (buffers of Table 6) was found to be 100 mM HEPES pH 7.4-7.5. For the same substance, the Km in series [3] was found to be 66.9 µM. For the same substance, the kcat in series [3] amounted to 5.03 s⁻¹.
